The test system of experiment [1] is CD69. The experiment in a line: CD69 expression by FACS in transfected Jurkat T cells. It is filed as cell-based, human. Here is the method: KRC was transfected into Jurkat T cells and CD69 expression was measured by FACS analysis.
A general note: Flow cytometry measures light scatter and fluorescence of single cells or particles in a stream.

For experiment [2], the system named is MAPK (ERK, p38, JNK). The experiment in a line: MAPK activity in Jurkat cells (PathDetect reporter, immunoprecipitation-kinase assay). The format is cell-based, human. Here is the method:
FIG. 20(A) Jurkat cells were transiently transfected with AP-1 Luciferase reporter along with KRC and RasN17 DN vectors. 24 hours later cells were pretreated with Rottlerin (10 μM) and stimulated for 6 hours with PMA plus ionomycin. Luciferase activity was measured as above. FIG. 20(B) Jurkat cells were transfected with a GAL4 Luciferase reporter along with a GAL4 DNA binding domain, GAL4-ATF2, or GAL4-ELK1 with or without KRC. 24 hours later, cells were stimulated with PMA plus ionomycin and analyzed for Luciferase activity as above. FIG. 20(C) Jurkat cells were transiently transfected with FLAG-JNK2, and either Vector, KRC, or MKK7. 48 hours later, cells were stimulated with PMA plus ionomycin for 6 hours and JNK activity was determined by immunoprecipitation/kinase assay. […]
KRC may enhance AP-1 function indirectly through the modulation of MAPK activity, kinases downstream of Ras that are known to potently stimulate AP-1 function (Binetruy, B., et al. (1991) Nature 351:122-127; Deng, T., and M. Karin (1994) Nature 371:171-175; Murphy, L., et al. (2002) Nat. Cell Biol. 4: 556-564). […] Co-expression of KRC with HA-ERK1, myc-ERK2, Flag-P38 and Flag-JNK2 was performed and the activity of each kinase was measured using an immunoprecipitation-kinase assay with specific substrates, GST-Elk1, GST-ATF2 and GST-Jun for each MAPK. […]

The subject of experiment [3] is F-actin. The experiment in a line: F-actin immunofluorescence in Jurkat T cells. The format is cell-based, human. How it is done: Immunofluorescence of F-actin upon KRC overexpression in Jurkat T cells was performed.
For experiment [4], the system named is TRAF2, TRAF5, TRAF6. The experiment can be described thus: Coimmunoprecipitation with TRAF family members in 293T cells. The format is binding. From the text: FIGS. 1(A)-1(E) show the interaction of amino acid residues 204 to 1055 of KRC (“KRC tr”) (amino acids 204-1055 of SEQ ID NO:2) with TRAF family members. […] FIG. 1(B) upper panel depicts the interaction of KRC tr with TRAFs in mammalian cells. 293 T cells were cotransfected with the indicated FLAG-TRAFs and MYC-tagged KRC tr, and immunoprecipitated with anti-MYC antibody, followed by blotting with anti-FLAG antibody. FIG. 1(B) lower panel depicts the direct western blot of overexpressed TRAFS and KRC tr with anti-FLAG or anti-MYC. FIG. 1(C) depicts the differential interaction of KRC tr with TRAF proteins. The coimmunoprecipitation experiments were performed in the presence of 300 mM NaCl instead of 137 mM NaCl. FIG. 1(D) depicts KRC tr interacting with TRAF2 lacking the Ring finger domain. 293 T cells were transfected with MYC-KRC tr and with FLAG tagged TRAF2 or with FLAG-tagged TRAF2 (87-501). FIG. 1(E) depicts the interaction of KRC tr with endogenous TRAF2 but not with endogenous TRAF5 or TRAF6. 293T were transfected with an expression vector encoding an MYC-tagged KRC tr, or empty plasmid. Lysates from 293T cells were incubated with anti-MYC antibodies. Coimmunoprecipitated endogenous TRAF was detected by western blotting with specific anti-TRAF antibodies.
Effectene™ mediated transfections into 293T cells were performed. […]

Turning to “KRC: full-length KRC zinc finger protein (SEQ ID NO:2) overexpressed from an expression vector”, in experiment [1], the CD69 expression result was “increases expression of CD69”. In addition, in experiment [2] (ERK1, ERK2, P38, JNK2), the “MAPK activity, immunoprecipitation-kinase assay” value is recorded as “no detectable effect on any of the MAPKs”. For the same substance, the “MAPK / p38 activity, PathDetect reporter (ELK-1, ATF2)” value in experiment [2] (Jurkat cells) is “unable to modulate either MAPK or p38 activity”. Besides, the “actin polymerization (F-actin)” value in experiment [3] is listed as “reorganization of F-actin filaments”. In experiment [4], the “interaction with TRAF family members” value was “higher affinity with TRAF2 than with TRAF5 and TRAF6”.
